Measurements as given in patent US20110028566A1, “COMPOSITIONS AND PRODUCTS CONTAINING CYCLOALIPHATIC DIOL ANTIMICROBIAL AGENTS AND METHODS OF USING THE COMPOSITIONS AND PRODUCTS” (EASTMAN CHEMICAL COMPANY, priority 2009, published 2011).

Key:
Assay type in all cases: cell-based
Candida albicans = assay: Microbial challenge testing in BPW; settings: BPW, w/v % in label, average of replicates; for Grade code, C. albicans, 3 Day: 3 days incubation; for Grade code, C. albicans, 14 Day: 14 days incubation; for Grade code, C. albicans, 30 Days: 30 days incubation
Procedure, shortened: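 C. albicans was grown in TSB with 1% dextrose at 22°C and harvested by gauze filtration and centrifugation. It was then adjusted by turbidity in pH 7.2 phosphate buffer and checked by hemocytometer and SDA plate counts. The inoculum was added to BPW (pH 7.0, 1% dextrose) containing test materials, giving 10^5–10^6 cfu/mL at time zero.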

Malassezia furfur = assay: Challenge testing with pathogenic fungi in SDB; settings: SDB with olive oil and Tween 80, w/v % in label, pellicle formation; for Grade code, Pathogenic Fungi, M. furfur, 3 Days: 3 days incubation; for Grade code, Pathogenic Fungi, M. furfur, 14 Days: 14 days incubation; for Grade code, Pathogenic Fungi, M. furfur, 30 Days: 30 days incubation
Method: (§1) Both M. canis and Trichophyton rubrum were grown on Sabouraud dextrose broth (SDB) (pH 5.6), while Malassezia fufur was grown in SDB supplemented with 2% (v/v) of olive oil and 0.2% (v/v) of Tween™ 80; incubation was at 22° C.±2° C. under continuous agitation by stirring for 10 days. The organisms were grown to a cell concentration of between 10^3 and 10^4 cfu/mL. The actual inoculation cell concentration of these challenges was determined by diluting in sterile buffer water and (spread-plate method) plating for enumeration.
(§2) Challenge organisms were used to inoculate tubes containing each test material (CHDM, etc) or combination of test materials, at concentrations given in Table 5, in SDB (or for M. furfur, in SDB supplemented with olive oil and Tween™ 80). The inoculations were in the amount of 1.5 mL aliquots of each culture with static incubation at 22±2° C. Subcultures were made after 3-, 14-, and 30-days incubation. All challenges were conducted in triplicate. In the case of M. canis, the growth response was assessed by the visual presence or absence of growth in the tubes; in the case of T. rubrum, a respiratory dye (0.2% w/v aqueous INT solution: 2-(4-iodophenyl)-3-(4-nitrophenyl)-5-phenyl tetrazolium chloride) was added to the tubes, turning red if the organism was viable; and, finally, in the case of M. furfur, the growth response was assessed based upon visible pellicle formation in the tubes at the meniscus. The fungal growth in each tube was assigned a grade code as follows:
(§3) 0: No visible growth 1: Some growth in tube 2: Moderate growth in tube 3: Good growth in tube 4: Extreme growth in tube
(§4) All test material concentrations are given as w/v %. The grade codes given are the average of the grade codes for duplicate or triplicate samples.
(§5) Table 5 compares the antimicrobial activity of 1,4-CHDM (AB) alone to 1,4-CHDM in combination with EDTA, phenoxyethanol (PE), and caprylyl glycol (CG). CHDM at 0.5% was tested with EDTA, and at 1.25 and 2.5% with EDTA, PE, and CG. (Note that the combination of CHDM with only EDTA was not tested against pathogenic fungi.) Results are also given for EDTA, PE, and CG alone, so the result for each mixture can be compared to the antimicrobial activity for each of its components individually. […] Possible synergies were determined by treating the grade code as an estimate of the log of the microbial count (log of cfu/mL). Log reductions can then be estimated by subtracting each grade code from the grade code for broth alone (grade code 5, except for the pathogenic fungi).

Trichophyton rubrum = assay: Challenge testing with pathogenic fungi in SDB; settings: w/v % in label, INT respiratory dye; for Grade code, Pathogenic Fungi, T. ruburm, 3 Days: 3 days incubation; for Grade code, Pathogenic Fungi, T. ruburm, 14 Days: 14 days incubation; for Grade code, Pathogenic Fungi, T. ruburm, 30 Days: 30 days incubation
Method: as §1, §2, §3, §4, §5

Microsporum canis = assay: Challenge testing with pathogenic fungi in SDB; settings: w/v % in label, visual growth in tubes; for Grade code, Pathogenic Fungi, M. canis, 3 Days: 3 days incubation; for Grade code, Pathogenic Fungi, M. canis, 14 Days: 14 days incubation; for Grade code, Pathogenic Fungi, M. canis, 30 Days: 30 days incubation
Method: as §1, §2, §3, §4, §5

| SMILES | Grade code, C. albicans, 3 Day (Candida albicans) | Grade code, C. albicans, 14 Day (Candida albicans) | Grade code, C. albicans, 30 Days (Candida albicans) | Grade code, Pathogenic Fungi, M. furfur, 3 Days (Malassezia furfur) | Grade code, Pathogenic Fungi, M. furfur, 14 Days (Malassezia furfur) | Grade code, Pathogenic Fungi, M. furfur, 30 Days (Malassezia furfur) | Grade code, Pathogenic Fungi, T. ruburm, 3 Days (Trichophyton rubrum) | Grade code, Pathogenic Fungi, T. ruburm, 14 Days (Trichophyton rubrum) | Grade code, Pathogenic Fungi, T. ruburm, 30 Days (Trichophyton rubrum) | Grade code, Pathogenic Fungi, M. canis, 3 Days (Microsporum canis) | Grade code, Pathogenic Fungi, M. canis, 14 Days (Microsporum canis) | Grade code, Pathogenic Fungi, M. canis, 30 Days (Microsporum canis) |
| --- | --- | --- | --- | --- | --- | --- | --- | --- | --- | --- | --- | --- |
| CCCCCCC(O)CO (stereo not drawn) [CG, 1,2-octanediol] | 3 (101 to 1000 colonies (thus 1000 to 10,000 cfu/mL)) | 0 (No growth detected or <1 colony (thus <10 cfu/mL)) | 0 (No growth detected or <1 colony (thus <10 cfu/mL)) | 0 | 0 | 0 | 0 | 0 | 0 | 0 | 0 | 0 |
| O=C([O-])CN(CCN(CC(=O)O)CC(=O)O)CC(=O)[O-].[Na+].[Na+] [EDTA, ethylenediaminetetraacetic acid disodium salt] | 4 (1001 to 10,000 colonies (thus 10,000 cfu/mL to 100,000 cfu/mL)) | 5 (More than 10,000 colonies estimated (thus >100,000 cfu/mL)) | 5 (More than 10,000 colonies estimated (thus >100,000 cfu/mL)) | 0 | 0 | 0 | 1 | 0 | 0 | 2 | 1 | 0 |
